According to US9173422B2, “Compositions including pyruvate for companion animals and methods of use thereof” (Hill's Pet Nutrition, Inc., priority 2009, dated 2015):

Test: Canine pyruvate study blood chemistry
Format: in vivo
Details: dogs fed pyruvate compared to similar foods containing fish oil
From the text: 40 dogs were fed a control food for 28 days prior to start of the study. At day 0, dogs were allotted to one of three experimental foods, control+fish oil, control+pyruvate, or control+fish oil and pyruvate. Dogs were fed the experimental foods for 45 days. [table]

Structure (SMILES): CC(=O)C(=O)O [pyruvate, calcium pyruvate]
- blood urea nitrogen: reduced
- creatinine: reduced
